Results reported in ChEMBL document CHEMBL2073927, “ABCG2 transports sulfated conjugates of steroids and xenobiotics” (J Biol Chem, 2003).
Structures can show the parent of a compound that is named as a salt.

Legend:
ABCG2 [1] = target: T1, ABCG2 (Homo sapiens, UniProt Q9UNQ0); assay: TP_TRANSPORTER: inhibition of E1S uptake by Estrone at a concentration of 200uM in membrane vesicles from ABCG2-expressing P388 cells; type: functional, cell membranes, Membrane vesicle; design: scale not given: the % may be the effect or the level left; conditions: mouse, probe E1S, read-out: Activity
T1 sequence (Q9UNQ0 whole entry): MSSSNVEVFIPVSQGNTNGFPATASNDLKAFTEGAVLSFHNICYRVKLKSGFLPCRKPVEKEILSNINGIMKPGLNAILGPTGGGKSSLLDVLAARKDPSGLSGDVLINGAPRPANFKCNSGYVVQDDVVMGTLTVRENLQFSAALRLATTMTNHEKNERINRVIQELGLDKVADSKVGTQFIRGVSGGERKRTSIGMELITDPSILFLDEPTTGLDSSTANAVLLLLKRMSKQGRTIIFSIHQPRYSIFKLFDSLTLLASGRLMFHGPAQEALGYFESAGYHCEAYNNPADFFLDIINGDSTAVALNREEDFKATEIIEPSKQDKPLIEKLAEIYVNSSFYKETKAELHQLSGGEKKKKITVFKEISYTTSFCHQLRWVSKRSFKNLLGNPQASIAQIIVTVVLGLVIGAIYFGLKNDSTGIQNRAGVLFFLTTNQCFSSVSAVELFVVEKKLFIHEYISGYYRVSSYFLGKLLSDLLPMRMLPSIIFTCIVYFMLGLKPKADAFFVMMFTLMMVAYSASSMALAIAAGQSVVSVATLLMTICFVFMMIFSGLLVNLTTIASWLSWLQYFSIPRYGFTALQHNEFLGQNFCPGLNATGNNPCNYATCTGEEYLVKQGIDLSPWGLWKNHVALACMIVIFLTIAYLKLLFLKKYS

ABCG2 [2] = target: T1, ABCG2; assay: TP_TRANSPORTER: inhibition of E1S uptake by Pravastatin at a concentration of 200uM in membrane vesicles from ABCG2-expressing P388 cells; type: functional, cell membranes, Membrane vesicle; design: scale not given: the % may be the effect or the level left; conditions: mouse, probe E1S, read-out: Activity
ABCG2 [3] = target: T1, ABCG2; assay: TP_TRANSPORTER: inhibition of E1S uptake by Doxorubicin at a concentration of 1000uM in membrane vesicles from ABCG2-expressing P388 cells; type: functional, cell membranes, Membrane vesicle; design: scale not given: the % may be the effect or the level left; conditions: mouse, probe E1S, read-out: Activity
[4] = target: T2, Broad substrate specificity ATP-binding cassette transporter ABCG2 (Homo sapiens, UniProt Q9UNQ0); assay: TP_TRANSPORTER: inhibition of E1S uptake by 6-hydroxy-5,7-dimetyl-2-metylamino-4-(3-pyridylmethyl) benzothiazole glucronid at a concentration of 250uM in membrane vesicles from ABCG2-expressing P388 cells; type: functional, cell membranes, Membrane vesicle; design: scale not given: the % may be the effect or the level left; conditions: mouse, p388, 250 µM
T2 sequence (Q9UNQ0 whole entry): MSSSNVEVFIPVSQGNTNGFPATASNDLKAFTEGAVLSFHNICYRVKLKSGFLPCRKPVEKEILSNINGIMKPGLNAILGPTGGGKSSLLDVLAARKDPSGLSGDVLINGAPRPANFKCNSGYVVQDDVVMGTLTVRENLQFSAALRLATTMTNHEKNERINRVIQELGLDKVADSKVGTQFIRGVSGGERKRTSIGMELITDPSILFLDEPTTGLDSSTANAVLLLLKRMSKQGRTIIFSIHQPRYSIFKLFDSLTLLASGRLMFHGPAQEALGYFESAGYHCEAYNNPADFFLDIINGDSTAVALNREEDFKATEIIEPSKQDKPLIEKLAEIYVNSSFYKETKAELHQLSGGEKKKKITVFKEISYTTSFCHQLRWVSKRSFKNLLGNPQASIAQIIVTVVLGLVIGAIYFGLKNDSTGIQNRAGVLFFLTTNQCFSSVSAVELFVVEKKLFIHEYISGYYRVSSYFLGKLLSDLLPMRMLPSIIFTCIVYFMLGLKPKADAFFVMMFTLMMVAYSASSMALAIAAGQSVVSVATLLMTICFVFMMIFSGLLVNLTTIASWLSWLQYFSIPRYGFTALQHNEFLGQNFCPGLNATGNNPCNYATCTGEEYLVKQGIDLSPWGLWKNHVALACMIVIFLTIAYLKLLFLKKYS

[5] = target: T2, Broad substrate specificity ATP-binding cassette transporter ABCG2; assay: (§1) TP_TRANSPORTER: uptake (vesicle) in membrane vesicles from ABCG2-expressing P388 cells; type: functional, cell membranes; conditions: mouse
ABCG2 [6] = target: T1, ABCG2; assay: TP_TRANSPORTER: inhibition of E1S uptake by 2.4-dinitrophenyl-S-glutathione at a concentration of 80uM in membrane vesicles from ABCG2-expressing P388 cells; type: functional, cell membranes, Membrane vesicle; design: scale not given: the % may be the effect or the level left; conditions: mouse, probe E1S, read-out: Activity
ABCG2 [7] = target: T1, ABCG2; assay: TP_TRANSPORTER: inhibition of E1S uptake by 4-Methylumbelliferone glucuronide at a concentration of 500uM in membrane vesicles from ABCG2-expressing P388 cells; type: functional, cell membranes, Membrane vesicle; design: scale not given: the % may be the effect or the level left; conditions: mouse, probe E1S, read-out: Activity
[8] = substrate: Cc1cc(=O)oc2cc(OS(=O)(=O)O)ccc12; assay: TP_TRANSPORTER: uptake (vesicle) in membrane vesicle from ABCG2-expressing mouse lymphoma(P388)cells; type: functional, cell membranes
[9] = substrate: C[C@]12CC[C@@H]3c4ccc(OS(=O)(=O)O)cc4CC[C@H]3[C@@H]1CCC2=O; assay: as §1; type: functional, cell membranes
[10] = substrate: CNc1nc2c(Cc3cccnc3)c(C)c(OS(=O)(=O)O)c(C)c2s1; assay: as §1; type: functional, cell membranes

Question: Which activity at 200 µM (ABCG2 [1]) does the source give for `C[C@]12CC[C@@H]3c4ccc(O)cc4CC[C@H]3[C@@H]1CCC2=O` [ESTRONE] here?
Answer: 56%

Question: With `CC[C@H](C)C(=O)O[C@H]1C[C@H](O)C=C2C=C[C@H](C)[C@H](CC[C@@H](O)C[C@@H](O)CC(=O)O)[C@H]21` [PRAVASTATIN] as the molecule, how does the activity at 200 µM (ABCG2 [2]) read?
Answer: 76%

Question: For `COc1cccc2c1C(=O)c1c(O)c3c(c(O)c1C2=O)C[C@@](O)(C(=O)CO)C[C@@H]3O[C@H]1C[C@H](N)[C@H](O)[C@H](C)O1` [DOXORUBICIN], which activity at 1000 µM (ABCG2 [3]) is on record?
Answer: 72%

Question: For `CNc1nc2c(Cc3cccnc3)c(C)c(O[C@@H]3O[C@H](C(=O)O)[C@@H](O)[C@H](O)[C@H]3O)c(C)c2s1` [E3040 GLUCURONIDE], which Activity [4] is on record?
Answer: 76%

Question: And the Activity [5]?
Answer: substrate []

Question: For `CNc1nc2c(Cc3cccnc3)c(C)c(OS(=O)(=O)O)c(C)c2s1` [E3040 SULFATE], which Activity [5] is on record?
Answer: substrate []

Question: With `C[C@]12CC[C@H](OS(=O)(=O)O)CC1=CC[C@@H]1[C@@H]2CC[C@]2(C)C(=O)CC[C@@H]12` [PRASTERONE SULFURIC ACID] as the molecule, how does the Activity [5] read?
Answer: substrate []

Question: Which Activity [5] does the source give for `Cc1cc(=O)oc2cc(OS(=O)(=O)O)ccc12` here?
Answer: substrate []

Question: Which activity at 80 µM (ABCG2 [6]) does the source give for `N[C@@H](CCC(=O)N[C@H](CSc1ccc([N+](=O)[O-])cc1[N+](=O)[O-])C(=O)NCC(=O)O)C(=O)O` here?
Answer: 78%

Question: What about the Activity [5] of the same molecule?
Answer: substrate []

Question: `CN(Cc1cnc2nc(N)nc(N)c2n1)c1ccc(C(=O)N[C@@H](CCC(=O)O)C(=O)O)cc1` [METHOTREXATE] was tested. Which Activity [5] did it give?
Answer: substrate []

Question: `C[C@]12CC[C@@H]3c4ccc(O)cc4CC[C@H]3[C@@H]1CC[C@@H]2O[C@@H]1O[C@H](C(=O)O)[C@@H](O)[C@H](O)[C@H]1O` [ESTRADIOL 17B GLUCURONIDE] was tested. Which Activity [5] did it give?
Answer: substrate []

Question: Which activity at 500 µM (ABCG2 [7]) does the source give for `O=C(O)[C@H]1O[C@@H](OCc2cc(=O)oc3cc(O)ccc23)[C@H](O)[C@@H](O)[C@@H]1O` here?
Answer: 84%

Question: What about the Activity [5] of the same molecule?
Answer: substrate []

B1: Broad substrate specificity ATP-binding cassette transporter ABCG2 (Homo sapiens) (protein)
chain: MSSSNVEVFIPVSQGNTNGFPATASNDLKAFTEGAVLSFHNICYRVKLKSGFLPCRKPVEKEILSNINGIMKPGLNAILGPTGGGKSSLLDVLAARKDPSGLSGDVLINGAPRPANFKCNSGYVVQDDVVMGTLTVRENLQFSAALRLATTMTNHEKNERINRVIQELGLDKVADSKVGTQFIRGVSGGERKRTSIGMELITDPSILFLDEPTTGLDSSTANAVLLLLKRMSKQGRTIIFSIHQPRYSIFKLFDSLTLLASGRLMFHGPAQEALGYFESAGYHCEAYNNPADFFLDIINGDSTAVALNREEDFKATEIIEPSKQDKPLIEKLAEIYVNSSFYKETKAELHQLSGGEKKKKITVFKEISYTTSFCHQLRWVSKRSFKNLLGNPQASIAQIIVTVVLGLVIGAIYFGLKNDSTGIQNRAGVLFFLTTNQCFSSVSAVELFVVEKKLFIHEYISGYYRVSSYFLGKLLSDLLPMRMLPSIIFTCIVYFMLGLKPKADAFFVMMFTLMMVAYSASSMALAIAAGQSVVSVATLLMTICFVFMMIFSGLLVNLTTIASWLSWLQYFSIPRYGFTALQHNEFLGQNFCPGLNATGNNPCNYATCTGEEYLVKQGIDLSPWGLWKNHVALACMIVIFLTIAYLKLLFLKKYS
Question: What does the source list for B1?
Answer: Km [8]: 13 µM; Km [9]: 17 µM; Km [10]: 27 µM
